Literature values in patent publication US12490952B2, “Combined sub-iliopsoas and subpectineal blocks—for hip surgery” (National Guard Health Affairs, priority 2020, dated 2025).

Settings: local anesthetic, general background statement

CCN(CC)CCOC(=O)c1ccc(N)cc1Cl [Chloroprocaine]
duration of action (short-acting / intermediate duration): 45 to 90 min
